Source: ChEMBL document CHEMBL4507297, “Data for DCP probe PF-04457845” (2021)

Columns and labels:
[1] = biological target: Mitogen-activated protein kinase kinase kinase 9 (Homo sapiens) (UniProt P80192); conditions: Compound concentration 1000.0 nM
[2] = test system: ALK tyrosine kinase receptor (Homo sapiens), Q9UM73 [C1156Y]; conditions: Compound concentration 1000.0 nM
[3] = biological target: Serine/threonine-protein kinase MAK (Homo sapiens) (UniProt P20794); conditions: Compound concentration 1000.0 nM
[4] = biological target: TGF-beta receptor type-2 (Homo sapiens) (UniProt P37173); conditions: Compound concentration 1000.0 nM
[5] = biological target: Tyrosine-protein kinase ABL1 (Homo sapiens) (UniProt P00519); conditions: Compound concentration 1000.0 nM
Chain of Tyrosine-protein kinase ABL1 (Homo sapiens) (P00519 whole entry, canonical isoform): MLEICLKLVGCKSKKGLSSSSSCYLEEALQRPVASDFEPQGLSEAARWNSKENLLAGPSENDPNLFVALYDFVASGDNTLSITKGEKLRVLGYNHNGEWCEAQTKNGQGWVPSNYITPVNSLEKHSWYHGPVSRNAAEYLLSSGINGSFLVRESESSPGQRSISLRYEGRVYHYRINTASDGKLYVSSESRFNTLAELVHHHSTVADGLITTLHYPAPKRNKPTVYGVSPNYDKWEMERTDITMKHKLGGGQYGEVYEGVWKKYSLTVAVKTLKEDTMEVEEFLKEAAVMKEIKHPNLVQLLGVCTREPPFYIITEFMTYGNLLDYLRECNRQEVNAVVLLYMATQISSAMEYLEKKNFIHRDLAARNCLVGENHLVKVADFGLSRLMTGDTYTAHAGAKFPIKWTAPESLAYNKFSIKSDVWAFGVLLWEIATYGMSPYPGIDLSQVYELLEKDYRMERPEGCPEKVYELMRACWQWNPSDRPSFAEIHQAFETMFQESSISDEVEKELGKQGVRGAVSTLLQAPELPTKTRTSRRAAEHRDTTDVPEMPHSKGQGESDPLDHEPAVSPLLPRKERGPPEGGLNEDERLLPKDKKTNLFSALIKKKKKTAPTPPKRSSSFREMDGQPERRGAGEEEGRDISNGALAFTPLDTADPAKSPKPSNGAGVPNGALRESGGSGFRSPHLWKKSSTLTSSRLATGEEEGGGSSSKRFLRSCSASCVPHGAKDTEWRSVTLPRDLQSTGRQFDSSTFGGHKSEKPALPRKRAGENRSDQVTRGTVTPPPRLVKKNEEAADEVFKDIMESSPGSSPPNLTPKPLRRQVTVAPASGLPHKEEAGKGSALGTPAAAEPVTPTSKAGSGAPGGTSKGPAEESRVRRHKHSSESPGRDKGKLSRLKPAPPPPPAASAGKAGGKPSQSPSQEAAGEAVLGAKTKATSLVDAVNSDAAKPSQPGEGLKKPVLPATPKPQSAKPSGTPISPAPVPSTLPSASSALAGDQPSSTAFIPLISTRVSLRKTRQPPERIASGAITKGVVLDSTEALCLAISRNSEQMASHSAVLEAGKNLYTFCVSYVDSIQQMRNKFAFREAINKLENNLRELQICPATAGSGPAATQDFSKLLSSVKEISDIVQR

[6] = biological target: Dual specificity protein kinase CLK1 (Homo sapiens) (UniProt P49759); conditions: Compound concentration 1000.0 nM
[7] = biological target: Serine/threonine-protein kinase PLK1 (Homo sapiens) (UniProt P53350); conditions: Compound concentration 1000.0 nM
[8] = test system: Receptor-type tyrosine-protein kinase FLT3 (Homo sapiens), P36888 [UNDEFINED MUTATION]; conditions: Compound concentration 1000.0 nM
Chain of Receptor-type tyrosine-protein kinase FLT3 (Homo sapiens), P36888 [UNDEFINED MUTATION] (P36888 whole entry, looked up, change not shown): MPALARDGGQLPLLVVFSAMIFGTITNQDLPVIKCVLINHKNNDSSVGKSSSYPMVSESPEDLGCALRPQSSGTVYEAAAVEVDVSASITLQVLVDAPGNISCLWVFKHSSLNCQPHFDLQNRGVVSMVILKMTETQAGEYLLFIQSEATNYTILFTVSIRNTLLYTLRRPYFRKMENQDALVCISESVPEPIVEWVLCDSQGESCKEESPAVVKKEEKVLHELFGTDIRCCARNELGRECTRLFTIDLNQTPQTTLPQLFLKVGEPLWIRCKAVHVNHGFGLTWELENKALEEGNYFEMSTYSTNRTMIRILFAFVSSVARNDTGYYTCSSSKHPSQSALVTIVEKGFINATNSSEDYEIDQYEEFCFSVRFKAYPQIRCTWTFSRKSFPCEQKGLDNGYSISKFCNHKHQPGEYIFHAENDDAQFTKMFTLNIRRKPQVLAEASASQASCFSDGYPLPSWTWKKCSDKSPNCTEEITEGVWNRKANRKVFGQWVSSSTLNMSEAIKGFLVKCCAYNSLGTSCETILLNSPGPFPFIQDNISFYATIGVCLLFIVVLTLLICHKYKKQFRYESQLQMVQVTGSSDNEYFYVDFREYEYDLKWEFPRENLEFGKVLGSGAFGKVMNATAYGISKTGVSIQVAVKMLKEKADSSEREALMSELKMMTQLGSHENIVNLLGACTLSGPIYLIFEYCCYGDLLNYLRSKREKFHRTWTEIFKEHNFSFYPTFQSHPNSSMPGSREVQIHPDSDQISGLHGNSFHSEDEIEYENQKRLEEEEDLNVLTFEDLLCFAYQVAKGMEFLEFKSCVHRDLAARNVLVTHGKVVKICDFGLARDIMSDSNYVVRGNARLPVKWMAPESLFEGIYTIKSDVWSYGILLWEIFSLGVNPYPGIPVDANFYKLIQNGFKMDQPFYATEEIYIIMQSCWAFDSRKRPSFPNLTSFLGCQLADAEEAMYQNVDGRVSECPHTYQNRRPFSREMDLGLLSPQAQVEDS

[9] = biological target: Calcium/calmodulin-dependent protein kinase kinase 2 (Homo sapiens) (UniProt Q96RR4); conditions: Compound concentration 1000.0 nM
[10] = biological target: RAC-alpha serine/threonine-protein kinase (Homo sapiens) (UniProt P31749); conditions: Compound concentration 1000.0 nM
[11] = biological target: Calcium/calmodulin-dependent protein kinase type 1 (Homo sapiens) (UniProt Q14012); conditions: Compound concentration 1000.0 nM
[12] = biological target: BMP-2-inducible protein kinase (Homo sapiens) (UniProt Q9NSY1); conditions: Compound concentration 1000.0 nM
[13] = biological target: Mitotic checkpoint serine/threonine-protein kinase BUB1 (Homo sapiens) (UniProt O43683); conditions: Compound concentration 1000.0 nM
Chain of Mitotic checkpoint serine/threonine-protein kinase BUB1 (Homo sapiens) (O43683 whole entry, looked up): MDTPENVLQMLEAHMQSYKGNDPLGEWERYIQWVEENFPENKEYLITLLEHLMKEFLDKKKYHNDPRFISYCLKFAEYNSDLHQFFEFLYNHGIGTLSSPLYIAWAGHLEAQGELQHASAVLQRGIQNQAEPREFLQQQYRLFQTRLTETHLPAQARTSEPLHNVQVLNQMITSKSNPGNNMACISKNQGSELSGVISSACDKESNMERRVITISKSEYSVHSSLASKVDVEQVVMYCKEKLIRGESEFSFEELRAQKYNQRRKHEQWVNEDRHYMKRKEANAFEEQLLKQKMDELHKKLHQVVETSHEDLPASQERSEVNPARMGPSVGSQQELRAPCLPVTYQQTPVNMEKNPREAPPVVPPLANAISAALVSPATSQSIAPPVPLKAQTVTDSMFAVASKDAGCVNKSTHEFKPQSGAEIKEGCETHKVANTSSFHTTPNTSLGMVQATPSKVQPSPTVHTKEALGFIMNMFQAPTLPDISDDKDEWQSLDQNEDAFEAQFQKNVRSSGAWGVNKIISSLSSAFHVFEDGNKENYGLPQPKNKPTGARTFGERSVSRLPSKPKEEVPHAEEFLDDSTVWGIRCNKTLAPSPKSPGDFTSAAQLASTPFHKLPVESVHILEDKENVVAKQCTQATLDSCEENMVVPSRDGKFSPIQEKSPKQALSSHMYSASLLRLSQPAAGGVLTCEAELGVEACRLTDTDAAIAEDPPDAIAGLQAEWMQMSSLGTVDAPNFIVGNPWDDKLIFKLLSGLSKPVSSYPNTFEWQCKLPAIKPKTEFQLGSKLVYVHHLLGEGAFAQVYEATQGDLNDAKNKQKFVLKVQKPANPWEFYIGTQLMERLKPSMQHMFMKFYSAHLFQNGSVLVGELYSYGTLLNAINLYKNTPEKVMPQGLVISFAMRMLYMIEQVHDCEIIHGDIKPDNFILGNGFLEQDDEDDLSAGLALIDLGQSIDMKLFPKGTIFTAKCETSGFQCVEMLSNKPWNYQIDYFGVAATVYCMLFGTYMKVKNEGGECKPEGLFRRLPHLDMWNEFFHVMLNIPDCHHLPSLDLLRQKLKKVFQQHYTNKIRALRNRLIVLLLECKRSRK

[14] = biological target: Phosphatidylinositol 3-kinase catalytic subunit type 3 (Homo sapiens) (UniProt Q8NEB9); conditions: Compound concentration 1000.0 nM
[15] = biological target: Tyrosine-protein kinase ABL1 (Homo sapiens) (UniProt P00519); conditions: Compound concentration 1000.0 nM; remark: listed apart in the source
[16] = biological target: Phosphorylase b kinase regulatory subunit alpha, liver isoform (Homo sapiens) (UniProt P46019); conditions: Compound concentration 1000.0 nM
[17] = biological target: Serine/threonine-protein kinase Nek2 (Homo sapiens) (UniProt P51955); conditions: Compound concentration 1000.0 nM
Chain of Serine/threonine-protein kinase Nek2 (Homo sapiens) (P51955 whole entry): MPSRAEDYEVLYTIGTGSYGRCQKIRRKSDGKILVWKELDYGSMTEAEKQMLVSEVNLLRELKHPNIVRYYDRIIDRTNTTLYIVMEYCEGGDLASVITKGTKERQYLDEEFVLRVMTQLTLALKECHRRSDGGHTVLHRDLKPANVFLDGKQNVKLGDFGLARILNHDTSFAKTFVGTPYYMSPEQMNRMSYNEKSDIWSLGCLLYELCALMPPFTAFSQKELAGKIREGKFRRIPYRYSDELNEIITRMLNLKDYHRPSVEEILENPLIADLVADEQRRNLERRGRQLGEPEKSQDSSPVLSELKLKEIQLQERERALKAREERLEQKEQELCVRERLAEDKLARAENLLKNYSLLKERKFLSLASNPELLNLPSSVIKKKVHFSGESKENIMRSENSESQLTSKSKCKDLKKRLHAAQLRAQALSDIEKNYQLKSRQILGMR

[18] = biological target: Mitogen-activated protein kinase kinase kinase 4 (Homo sapiens) (UniProt Q9Y6R4); conditions: Compound concentration 1000.0 nM
[19] = biological target: Serine/threonine-protein kinase PAK 5 (Homo sapiens) (UniProt Q9P286); conditions: Compound concentration 1000.0 nM
[20] = biological target: Calcium/calmodulin-dependent protein kinase type II subunit gamma (Homo sapiens) (UniProt Q13555); conditions: Compound concentration 1000.0 nM
[21] = biological target: Ephrin type-B receptor 4 (Homo sapiens) (UniProt P54760); conditions: Compound concentration 1000.0 nM
[22] = biological target: Glycogen synthase kinase-3 alpha (Homo sapiens) (UniProt P49840); conditions: Compound concentration 1000.0 nM
[23] = biological target: Protein kinase C delta type (Homo sapiens) (UniProt Q05655); conditions: Compound concentration 1000.0 nM
[24] = biological target: Cyclin-dependent kinase 15 (Homo sapiens) (UniProt Q96Q40); conditions: Compound concentration 1000.0 nM
Chain of Cyclin-dependent kinase 15 (Homo sapiens) (Q96Q40 whole entry): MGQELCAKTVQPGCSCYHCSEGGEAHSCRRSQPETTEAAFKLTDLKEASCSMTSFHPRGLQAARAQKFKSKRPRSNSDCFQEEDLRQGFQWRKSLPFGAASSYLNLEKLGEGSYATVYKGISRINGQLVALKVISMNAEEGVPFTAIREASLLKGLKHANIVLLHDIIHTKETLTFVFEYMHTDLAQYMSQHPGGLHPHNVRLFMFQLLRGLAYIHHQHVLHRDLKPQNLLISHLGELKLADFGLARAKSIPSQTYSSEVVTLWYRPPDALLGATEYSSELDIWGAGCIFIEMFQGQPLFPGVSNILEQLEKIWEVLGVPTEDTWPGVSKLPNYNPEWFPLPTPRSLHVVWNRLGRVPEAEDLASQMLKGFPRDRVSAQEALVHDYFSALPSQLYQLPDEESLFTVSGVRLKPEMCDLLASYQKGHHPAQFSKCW

[25] = biological target: Serine/threonine-protein kinase MARK1 (Homo sapiens) (UniProt Q9P0L2); conditions: Compound concentration 1000.0 nM
[26] = biological target: Ephrin type-A receptor 5 (Homo sapiens) (UniProt P54756); conditions: Compound concentration 1000.0 nM
[27] = biological target: Tyrosine-protein kinase BTK (Homo sapiens) (UniProt Q06187); conditions: Compound concentration 1000.0 nM
[28] = biological target: GABA-A receptor; anion channel (Rattus norvegicus) (UniProt O09028+P15431+P18506+P18508+P19969+P20236+P23574+P23576+P28471+P28473+P30191+P62813+P63079+P63138+Q91ZM7+Q9ES14); conditions: Compound concentration 10.0 uM
[29] = biological target: Serine/threonine-protein kinase PAK 4 (Homo sapiens) (UniProt O96013); conditions: Compound concentration 1000.0 nM
[30] = biological target: Alpha-1B adrenergic receptor (Homo sapiens) (UniProt P35368); conditions: Compound concentration 10.0 uM
[31] = biological target: Serine/threonine-protein kinase DCLK3 (Homo sapiens) (UniProt Q9C098); conditions: Compound concentration 1000.0 nM
[32] = test system: Mast/stem cell growth factor receptor Kit (Homo sapiens), P10721 [V559D,T670I]; conditions: Compound concentration 1000.0 nM
Chain of Mast/stem cell growth factor receptor Kit (Homo sapiens), P10721 [V559D,T670I] (P10721 whole entry V559D/T670I): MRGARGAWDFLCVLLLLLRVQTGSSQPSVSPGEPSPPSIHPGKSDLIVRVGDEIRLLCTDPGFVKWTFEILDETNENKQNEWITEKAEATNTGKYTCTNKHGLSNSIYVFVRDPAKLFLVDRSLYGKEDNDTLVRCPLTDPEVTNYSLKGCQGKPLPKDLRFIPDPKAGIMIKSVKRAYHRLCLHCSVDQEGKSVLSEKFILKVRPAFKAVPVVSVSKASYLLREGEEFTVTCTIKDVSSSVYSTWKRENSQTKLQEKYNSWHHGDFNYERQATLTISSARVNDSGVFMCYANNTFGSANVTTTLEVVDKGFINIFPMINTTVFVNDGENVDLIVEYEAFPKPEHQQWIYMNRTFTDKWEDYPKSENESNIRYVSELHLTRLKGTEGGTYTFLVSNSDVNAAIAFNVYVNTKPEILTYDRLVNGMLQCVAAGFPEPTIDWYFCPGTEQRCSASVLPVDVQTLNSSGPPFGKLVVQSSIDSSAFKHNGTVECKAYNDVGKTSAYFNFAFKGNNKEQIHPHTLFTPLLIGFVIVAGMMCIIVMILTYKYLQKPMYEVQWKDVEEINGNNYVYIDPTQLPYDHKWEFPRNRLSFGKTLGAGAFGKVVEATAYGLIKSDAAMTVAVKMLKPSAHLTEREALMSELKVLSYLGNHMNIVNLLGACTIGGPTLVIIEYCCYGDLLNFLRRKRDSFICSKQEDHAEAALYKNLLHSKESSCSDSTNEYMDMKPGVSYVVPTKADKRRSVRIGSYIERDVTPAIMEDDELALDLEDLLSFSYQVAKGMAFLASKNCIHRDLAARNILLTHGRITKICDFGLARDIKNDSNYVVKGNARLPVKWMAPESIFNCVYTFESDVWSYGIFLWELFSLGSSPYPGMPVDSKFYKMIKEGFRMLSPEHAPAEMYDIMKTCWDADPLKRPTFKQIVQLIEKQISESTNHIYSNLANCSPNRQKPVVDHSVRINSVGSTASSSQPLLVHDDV

[33] = biological target: T1, 5-hydroxytryptamine receptor 2C (Homo sapiens) (UniProt P28335); conditions: Compound concentration 10.0 uM
T1 sequence (whole entry): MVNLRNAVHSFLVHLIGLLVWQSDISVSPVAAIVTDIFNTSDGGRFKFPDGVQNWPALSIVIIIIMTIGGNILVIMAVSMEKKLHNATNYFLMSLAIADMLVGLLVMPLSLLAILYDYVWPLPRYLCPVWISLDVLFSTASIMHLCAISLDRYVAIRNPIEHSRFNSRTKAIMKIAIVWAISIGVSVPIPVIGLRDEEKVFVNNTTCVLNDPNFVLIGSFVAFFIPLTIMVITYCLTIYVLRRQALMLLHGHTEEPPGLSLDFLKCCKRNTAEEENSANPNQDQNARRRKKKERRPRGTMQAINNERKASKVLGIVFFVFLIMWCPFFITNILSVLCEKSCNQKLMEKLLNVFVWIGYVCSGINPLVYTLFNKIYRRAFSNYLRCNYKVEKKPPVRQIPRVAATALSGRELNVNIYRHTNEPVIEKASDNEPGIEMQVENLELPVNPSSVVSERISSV

[34] = biological target: STE20/SPS1-related proline-alanine-rich protein kinase (Homo sapiens) (UniProt Q9UEW8); conditions: Compound concentration 1000.0 nM
[35] = biological target: Mast/stem cell growth factor receptor Kit (Homo sapiens) (UniProt P10721); conditions: Compound concentration 1000.0 nM
[36] = biological target: Serine/threonine-protein kinase N2 (Homo sapiens) (UniProt Q16513); conditions: Compound concentration 1000.0 nM
[37] = biological target: Fibroblast growth factor receptor 1 (Homo sapiens) (UniProt P11362); conditions: Compound concentration 1000.0 nM

| SMILES | residual activity [1] | residual activity [2] | residual activity [3] | residual activity [4] | residual activity [5] | residual activity [6] | residual activity [7] | residual activity [8] | residual activity [9] | residual activity [10] | residual activity [11] | residual activity [12] | residual activity [13] | residual activity [14] | residual activity [15] | residual activity [16] | residual activity [17] | residual activity [18] | residual activity [19] | residual activity [20] | other results |
| --- | --- | --- | --- | --- | --- | --- | --- | --- | --- | --- | --- | --- | --- | --- | --- | --- | --- | --- | --- | --- | --- |
| O=C(Nc1cccnn1)N1CC(C/C=C/c2cncc(Oc3ccc(C(F)(F)F)cn3)n2)C1 | 100% | 81% | 100% | 100% | 82% | 100% | 87% | 76% | 100% | 100% | 100% | 100% | 1.4% | 88% | 87% | 100% | 100% | 100% | 95% | 100% | residual activity [21]: 100%; residual activity [22]: 92%; residual activity [23]: 100%; residual activity [24]: 100%; residual activity [25]: 100%; residual activity [26]: 85%; residual activity [27]: 59%; inhibition [28]: 17.3%; residual activity [29]: 96%; inhibition [30]: 0.27%; residual activity [31]: 100%; residual activity [32]: 100%; inhibition [33]: 1.89%; residual activity [34]: 77%; residual activity [35]: 78%; residual activity [36]: 100%; residual activity [37]: 100% |
| O=C(Nc1cccnn1)N1CCC(=Cc2cccc(Oc3ccc(C(F)(F)F)cn3)c2)CC1 | 100% | 100% | 100% | 76% | 93% | 95% | 100% | 100% | 73% | 93% | 100% | 100% | 100% | 100% | 68% | 88% | 100% | 100% | 100% | 74% | residual activity [21]: 69%; residual activity [22]: 100%; residual activity [23]: 93%; residual activity [24]: 100%; residual activity [25]: 84%; residual activity [26]: 98%; residual activity [27]: 100%; inhibition [28]: 7.35%; residual activity [29]: 77%; inhibition [30]: 0.4%; residual activity [31]: 85%; residual activity [32]: 96%; inhibition [33]: 64.6%; residual activity [34]: 100%; residual activity [35]: 100%; residual activity [36]: 100%; residual activity [37]: 100% |
